This is an account of results in the NIST ThermoML archive (doi:10.1016/j.jct.2016.03.027).

± gives the expanded uncertainty stated by the source.

The nature of the data set: wn = mass fraction of the nth substance listed. The settings on record: 298.15 K, 100 kPa, Liquid, Vibrating tube method.

What is called mass density is the mass of a sample divided by its volume. In the case of `O=C1OCCO1` [ethylene carbonate] + O, the mass density is given as 1026.64 ± 1.2 kg/m3 (w1 = 0.1), 1056.71 ± 1.2 kg/m3 (w1 = 0.2), 1087.25 ± 1.2 kg/m3 (w1 = 0.3) and 1118.6 ± 1.2 kg/m3 (w1 = 0.4).
